In PubChem BioAssay (NCI):
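48-hour exposure; five concentrations; linearly interpolated endpoints. Abbreviation: GI50, concentration required for 50% inhibition of growth. The concentration for full growth arrest is given as TGI.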

Columns and labels:
Assay in all cases: inhibition of tumour cell growth, NCI panel, 48 h; in the data active = GI50 below about 0.43 µM; inactive = the rest
HT29 colon = system: HT29 colon
NCI-H522 lung = system: NCI-H522 lung
SF-295 CNS = system: SF-295 CNS
SW-620 colon = system: SW-620 colon
SR leukemia = system: SR leukemia
NCI-H23 lung = system: NCI-H23 lung
MDA-MB-231 breast = system: MDA-MB-231 breast
UACC-62 melanoma = system: UACC-62 melanoma
HCT-15 colon = system: HCT-15 colon
HS 578T breast = system: HS 578T breast
CAKI-1 renal = system: CAKI-1 renal
NCI-H226 lung = system: NCI-H226 lung
KM12 colon = system: KM12 colon
OVCAR-5 ovarian = system: OVCAR-5 ovarian
DU-145 prostate = system: DU-145 prostate
MOLT-4 leukemia = system: MOLT-4 leukemia
CCRF-CEM leukemia = system: CCRF-CEM leukemia
OVCAR-8 ovarian = system: OVCAR-8 ovarian
SK-MEL-28 melanoma = system: SK-MEL-28 melanoma
T-47D breast = system: T-47D breast
OVCAR-4 ovarian = system: OVCAR-4 ovarian
SF-539 CNS = system: SF-539 CNS
NCI/ADR-RES ovarian = system: NCI/ADR-RES ovarian
ACHN renal = system: ACHN renal
A549 NSCLC = system: A549 NSCLC
LOX IMVI melanoma = system: LOX IMVI melanoma
SNB-75 CNS = system: SNB-75 CNS
SF-268 CNS = system: SF-268 CNS
COLO 205 colon = system: COLO 205 colon
HL-60(TB) leukemia = system: HL-60(TB) leukemia
M14 melanoma = system: M14 melanoma
SNB-19 CNS = system: SNB-19 CNS
HCC-2998 colon = system: HCC-2998 colon
A498 renal = system: A498 renal
IGROV1 ovarian = system: IGROV1 ovarian
UO-31 renal = system: UO-31 renal
UACC-257 melanoma = system: UACC-257 melanoma
K-562 leukemia = system: K-562 leukemia
U251 CNS = system: U251 CNS
PC-3 prostate = system: PC-3 prostate
HOP-92 NSCLC = system: HOP-92 NSCLC
SK-MEL-5 melanoma = system: SK-MEL-5 melanoma
HOP-62 NSCLC = system: HOP-62 NSCLC
MALME-3M melanoma = system: MALME-3M melanoma
BT-549 breast = system: BT-549 breast
786-0 renal = system: 786-0 renal
RXF 393 renal = system: RXF 393 renal
MDA-MB-435 = system: MDA-MB-435
TK-10 renal = system: TK-10 renal
HCT-116 colon = system: HCT-116 colon
SK-OV-3 ovarian = system: SK-OV-3 ovarian
SK-MEL-2 melanoma = system: SK-MEL-2 melanoma
EKVX NSCLC = system: EKVX NSCLC
MCF7 breast = system: MCF7 breast
OVCAR-3 ovarian = system: OVCAR-3 ovarian
RPMI-8226 leukemia = system: RPMI-8226 leukemia
NCI-H460 lung = system: NCI-H460 lung
SN12C renal = system: SN12C renal
MDA-N = system: MDA-N

C[C@@]12CCC[C@@](C)(C(=O)O)C1CC[C@@]13CC(=O)[C@@](CO)(CCC12)C3 (some centres not stated)
> 100 µM: TGI (HT29 colon) | TGI (NCI-H522 lung) | TGI (SF-295 CNS) | TGI (SW-620 colon) | TGI (SR leukemia) | TGI (NCI-H23 lung) | TGI (MDA-MB-231 breast) | TGI (UACC-62 melanoma) | TGI (HCT-15 colon) | TGI (HS 578T breast) | TGI (CAKI-1 renal) | TGI (NCI-H226 lung) | TGI (KM12 colon) | TGI (OVCAR-5 ovarian) | TGI (DU-145 prostate) | TGI (MOLT-4 leukemia) | TGI (CCRF-CEM leukemia) | TGI (OVCAR-8 ovarian) | TGI (SK-MEL-28 melanoma) | TGI (T-47D breast) | TGI (OVCAR-4 ovarian) | TGI (SF-539 CNS) | TGI (NCI/ADR-RES ovarian) | TGI (ACHN renal) | TGI (A549 NSCLC) | TGI (LOX IMVI melanoma) | TGI (SNB-75 CNS) | TGI (SF-268 CNS) | TGI (COLO 205 colon) | TGI (HL-60(TB) leukemia) | TGI (M14 melanoma) | TGI (SNB-19 CNS) | TGI (HCC-2998 colon) | TGI (A498 renal) | TGI (IGROV1 ovarian) | TGI (UO-31 renal) | TGI (UACC-257 melanoma) | TGI (K-562 leukemia) | TGI (U251 CNS) | TGI (PC-3 prostate) | TGI (HOP-92 NSCLC) | TGI (SK-MEL-5 melanoma) | TGI (HOP-62 NSCLC) | TGI (MALME-3M melanoma) | TGI (BT-549 breast) | TGI (786-0 renal) | TGI (RXF 393 renal) | TGI (MDA-MB-435) | TGI (TK-10 renal) | TGI (HCT-116 colon) | TGI (SK-OV-3 ovarian) | TGI (SK-MEL-2 melanoma) | TGI (EKVX NSCLC) | TGI (MCF7 breast) | TGI (OVCAR-3 ovarian) | TGI (RPMI-8226 leukemia) | TGI (NCI-H460 lung) | TGI (SN12C renal)
inactive: GI50 (HT29 colon) > 100 µM | GI50 (NCI-H522 lung) > 100 µM | GI50 (SF-295 CNS) > 100 µM | GI50 (SW-620 colon) > 100 µM | GI50 (SR leukemia) > 100 µM | GI50 (NCI-H23 lung) > 100 µM | GI50 (MDA-MB-231 breast) > 100 µM | GI50 (UACC-62 melanoma) > 100 µM | GI50 (HCT-15 colon) > 100 µM | GI50 (HS 578T breast) > 100 µM | GI50 (CAKI-1 renal) > 100 µM | GI50 (NCI-H226 lung) > 100 µM | GI50 (KM12 colon) > 100 µM | GI50 (OVCAR-5 ovarian) > 100 µM | GI50 (DU-145 prostate) > 100 µM | GI50 (MOLT-4 leukemia) > 100 µM | GI50 (CCRF-CEM leukemia) > 100 µM | GI50 (OVCAR-8 ovarian) > 100 µM | GI50 (SK-MEL-28 melanoma) > 100 µM | GI50 (T-47D breast) > 100 µM | GI50 (OVCAR-4 ovarian) > 100 µM | GI50 (SF-539 CNS) > 100 µM | GI50 (NCI/ADR-RES ovarian) > 100 µM | GI50 (ACHN renal) > 100 µM | GI50 (A549 NSCLC) > 100 µM | GI50 (LOX IMVI melanoma) > 100 µM | GI50 (SNB-75 CNS) > 100 µM | GI50 (SF-268 CNS) > 100 µM | GI50 (COLO 205 colon) > 100 µM | GI50 (HL-60(TB) leukemia) > 100 µM | GI50 (M14 melanoma) > 100 µM | GI50 (SNB-19 CNS) > 100 µM | GI50 (HCC-2998 colon) > 100 µM | GI50 (A498 renal) > 100 µM | GI50 (IGROV1 ovarian) > 100 µM | GI50 (UO-31 renal) > 100 µM | GI50 (UACC-257 melanoma) > 100 µM | GI50 (K-562 leukemia) > 100 µM | GI50 (U251 CNS) > 100 µM | GI50 (PC-3 prostate) > 100 µM | GI50 (HOP-92 NSCLC) > 100 µM | GI50 (SK-MEL-5 melanoma) > 100 µM | GI50 (HOP-62 NSCLC) > 100 µM | GI50 (MALME-3M melanoma) > 100 µM | GI50 (BT-549 breast) > 100 µM | GI50 (786-0 renal) > 100 µM | GI50 (RXF 393 renal) > 100 µM | GI50 (MDA-MB-435) > 100 µM | GI50 (TK-10 renal) > 100 µM | GI50 (HCT-116 colon) > 100 µM | GI50 (SK-OV-3 ovarian) > 100 µM | GI50 (SK-MEL-2 melanoma) > 100 µM | GI50 (EKVX NSCLC) > 100 µM | GI50 (MCF7 breast) > 100 µM | GI50 (OVCAR-3 ovarian) > 100 µM | GI50 (RPMI-8226 leukemia) > 100 µM | GI50 (NCI-H460 lung) > 100 µM | GI50 (SN12C renal) > 100 µM

N#Cc1ccc2oc3ccc(C#N)cc3c(=O)c2c1
31.9 µM: TGI (MDA-N)
42.8 µM: TGI (RXF 393 renal)
37.4 µM: TGI (SK-MEL-2 melanoma) | TGI (NCI-H460 lung)
43.6 µM: TGI (SF-539 CNS)
41.6 µM: TGI (UACC-62 melanoma)
38.3 µM: TGI (OVCAR-4 ovarian)
53.7 µM: TGI (BT-549 breast)
57 µM: TGI (A549 NSCLC)
69.1 µM: TGI (SF-268 CNS)
17.6 µM: TGI (SK-MEL-5 melanoma)
38.5 µM: TGI (HL-60(TB) leukemia)
68 µM: TGI (786-0 renal)
28.9 µM: TGI (A498 renal)
64.8 µM: TGI (SNB-19 CNS)
50.8 µM: TGI (MALME-3M melanoma)
51.1 µM: TGI (NCI-H23 lung)
58.6 µM: TGI (SNB-75 CNS)
31.7 µM: TGI (U251 CNS)
34.5 µM: TGI (OVCAR-5 ovarian)
73.4 µM: TGI (TK-10 renal)
55 µM: TGI (PC-3 prostate)
77.5 µM: TGI (NCI-H226 lung)
> 100 µM: TGI (NCI-H522 lung) | TGI (SW-620 colon) | TGI (SR leukemia) | TGI (MDA-MB-231 breast) | TGI (HCT-15 colon) | TGI (CAKI-1 renal) | TGI (KM12 colon) | TGI (DU-145 prostate) | TGI (OVCAR-8 ovarian) | TGI (T-47D breast) | TGI (NCI/ADR-RES ovarian) | TGI (ACHN renal) | TGI (COLO 205 colon) | TGI (M14 melanoma) | TGI (HCC-2998 colon) | TGI (IGROV1 ovarian) | TGI (UO-31 renal) | TGI (UACC-257 melanoma) | TGI (K-562 leukemia) | TGI (HOP-92 NSCLC) | TGI (MDA-MB-435) | TGI (HCT-116 colon) | TGI (SN12C renal)
47.1 µM: TGI (SF-295 CNS)
40.1 µM: TGI (HT29 colon)
74 µM: TGI (CCRF-CEM leukemia)
94.8 µM: TGI (MCF7 breast)
46.9 µM: TGI (MOLT-4 leukemia)
36.7 µM: TGI (SK-MEL-28 melanoma)
62.4 µM: TGI (RPMI-8226 leukemia)

CN1N(c2ccccc2)C(=O)C2=NC=C(C#N)C(=N)C21C (configuration not stated)
> 100 µM: TGI (NCI-H522 lung) | TGI (SF-295 CNS) | TGI (SW-620 colon) | TGI (SR leukemia) | TGI (NCI-H23 lung) | TGI (MDA-MB-231 breast) | TGI (UACC-62 melanoma) | TGI (MDA-N) | TGI (HCT-15 colon) | TGI (CAKI-1 renal) | TGI (NCI-H226 lung) | TGI (KM12 colon) | TGI (OVCAR-5 ovarian) | TGI (DU-145 prostate) | TGI (MOLT-4 leukemia) | TGI (CCRF-CEM leukemia) | TGI (OVCAR-8 ovarian) | TGI (SK-MEL-28 melanoma) | TGI (OVCAR-4 ovarian) | TGI (SF-539 CNS) | TGI (NCI/ADR-RES ovarian) | TGI (ACHN renal) | TGI (A549 NSCLC) | TGI (LOX IMVI melanoma) | TGI (SNB-75 CNS) | TGI (COLO 205 colon) | TGI (M14 melanoma) | TGI (SNB-19 CNS) | TGI (HCC-2998 colon) | TGI (A498 renal) | TGI (IGROV1 ovarian) | TGI (UO-31 renal) | TGI (UACC-257 melanoma) | TGI (K-562 leukemia) | TGI (U251 CNS) | TGI (PC-3 prostate) | TGI (HOP-92 NSCLC) | TGI (SK-MEL-5 melanoma) | TGI (MALME-3M melanoma) | TGI (BT-549 breast) | TGI (786-0 renal) | TGI (RXF 393 renal) | TGI (MDA-MB-435) | TGI (TK-10 renal) | TGI (HCT-116 colon) | TGI (SK-OV-3 ovarian) | TGI (SK-MEL-2 melanoma) | TGI (EKVX NSCLC) | TGI (MCF7 breast) | TGI (OVCAR-3 ovarian) | TGI (RPMI-8226 leukemia) | TGI (NCI-H460 lung) | TGI (SN12C renal)
